Laboratory results taken from the supplement of paper PMC8967900.

Columns and labels:
Assay in all cases: selective drug sensitivity score (sDSS, relative to normal bone marrow) (sDSS (score)); higher = more potent and effective on the cell line relative to normal bone marrow cells
Conditions in all cases: 72 h
[1] = system: 380
[2] = system: ALL-PO
[3] = system: ALL-SIL
[4] = system: COG-LL-317
[5] = system: COG-LL-319h
[6] = system: COG-LL-355h
[7] = system: COG-LL-394h
[8] = system: DND-41
[9] = system: HPB-ALL
[10] = system: JURKAT
[11] = system: KASUMI-10
[12] = system: KASUMI-9
[13] = system: MOLT-14
[14] = system: MOLT-4
[15] = system: NALM-16
[16] = system: P30-OHKUBO
[17] = system: PEER
[18] = system: RCH-ACV
[19] = system: REH
[20] = system: TANOUE
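Note: ALL cell lines in 384-well plates, five doses spanning 10,000-fold, each plate scaled between vehicle and 100 µmol/L benzalkonium chloride controls, sDSS an adapted area-under-curve metric.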

Row | SMILES | selective drug sensitivity score [1] | selective drug sensitivity score [2] | selective drug sensitivity score [3] | selective drug sensitivity score [4] | selective drug sensitivity score [5] | selective drug sensitivity score [6] | selective drug sensitivity score [7] | selective drug sensitivity score [8] | selective drug sensitivity score [9] | selective drug sensitivity score [10] | selective drug sensitivity score [11] | selective drug sensitivity score [12] | selective drug sensitivity score [13] | selective drug sensitivity score [14] | selective drug sensitivity score [15] | selective drug sensitivity score [16] | selective drug sensitivity score [17] | selective drug sensitivity score [18] | selective drug sensitivity score [19] | selective drug sensitivity score [20]
1 | Nc1ncnc2c1c(COc1cccc(Cl)c1)nn2C1CCOCC1 (top concentration 10000 nM) | 5.46 | 0.66 | -0.64 | -0.64 | 3.96 | 2.06 | -0.64 | -0.64 | 1.26 | 0.06 | -0.64 | 1.06 | -0.64 | 0.16 | -0.64 | 0.56 | -0.64 | 6.06 | -0.64 | 1.16
2 | COc1cc2c(Oc3ccc4[nH]c(C)cc4c3F)ncnc2cc1OCCCN1CCCC1 [Cediranib] (top concentration 1000 nM) | 0 | 0 | 0 | 0.1 | 0 | 0 | 0 | 0 | 0 | 0 | 0 | 3.6 | 0 | 0.1 | 0 | 2.7 | 0 | 0 | 0 | 0
3 | CC1=C2C[C@H]3[C@@H](CC[C@@H]4C[C@H](NS(C)(=O)=O)CC[C@@]43C)[C@@H]2CC[C@@]2(C1)O[C@@H]1C[C@H](C)CN[C@H]1[C@H]2C [Saridegib] (top concentration 10000 nM) | -0.96 | 1.74 | -1.16 | -1.16 | -0.06 | -0.96 | 5.34 | 4.74 | 0.34 | -0.56 | -1.16 | -0.06 | 1.04 | -0.86 | 0.04 | -0.66 | 2.94 | 6.64 | -1.16 | -1.16
4 | C=CCN(/C=C1/C(=O)O[C@H](COC)[C@@]2(C)C1=C(O)C(=O)C1=C2[C@H](OC(C)=O)C[C@]2(C)C(=O)CC[C@@H]12)CC=C [Sonolisib] (top concentration 10000 nM) | -0.56 | 2.44 | 2.64 | -0.06 | 4.24 | 0.94 | -0.66 | 1.64 | -0.76 | -0.76 | -0.76 | 0.14 | -0.76 | -0.76 | -0.56 | -0.16 | -0.76 | 2.14 | -0.76 | -0.76
5 | Oc1ccc2c(c1)CC[C@H](c1ccccc1)[C@@H]2c1ccc(OCCN2CCCC2)cc1 [Lasofoxifene] (top concentration 1000 nM) | -1.28 | -1.28 | -1.28 | -1.28 | 2.62 | -1.28 | -1.28 | -1.28 | 7.52 | -1.28 | -1.28 | -1.28 | -1.28 | -1.28 | -1.28 | -1.28 | -1.28 | -1.28 | -1.28 | -1.08
6 | NC(=O)c1cccc(-c2cccc(OC(=O)NC3CCCCC3)c2)c1 [URB597] (top concentration 1000 nM) | 2.44 | -0.46 | -0.46 | -0.46 | 5.14 | -0.06 | -0.46 | -0.26 | -0.26 | -0.46 | -0.46 | 0.04 | -0.46 | -0.46 | -0.46 | -0.46 | -0.46 | -0.46 | -0.46 | 2.84
7 | COc1cccc(-c2ccc(NC(=O)C3=C(C(=O)O)CCC3)c(F)c2)c1 [Vidofludimus] (top concentration 10000 nM) | 5 | 2.6 | 3.2 | 4.3 | 6.9 | 0 | 0 | 5.3 | 3.2 | 8.2 | 0.5 | 2.7 | 3.5 | 3.6 | 3.5 | 3 | 5.1 | 8.8 | 8.9 | 3
